Results reported in patent publication US11419870B2, “Intermittent dosing of MDM2 inhibitor” (Novartis AG, priority 2014, dated 2022).
“And” between values parts separate entries of the source, which are not always exact repeats. Equal values may be shown once.

Tests used:
BBC3 (puma) = assay: Pharmacodynamic qRT-PCR: Puma mRNA induction in SJSA-1 tumor; type: in vivo, Human
Excerpt: (§1) At the times indicated, animals were anaesthetized by exposure to 2-3% v/v isofluorane in medical oxygen: • Either the animal was killed without recovering from anesthetic after blood sampling. Blood was collected into commercially prepared EDTA coated tubes (Milian, cat #TOM-14C) in order to extract plasma. The tissues were excised, weighed and rapidly frozen in liquid nitrogen. • Or a tumor biopsy was collected by using a biopsy gun and flushing the needle with RLT buffer in Barney rubble tubes (Covaris, cat #520048). In addition, 20 μl of blood may have been collected from the tail vein and diluted in 20 μl of water. After recovery of anesthesia, animals were transferred in their respective cages.
(§2) Frozen tissues were cryogenic dry pulverized and biopsies were sonicated using the CryoPrep™ system (model CP-02) from Covaris. More specifically, frozen tissues were transferred to disposable tubes called TissueTubes™, placed in the CryoPrep™ system and then pulverized using the appropriate impact setting. The resulting powder was collected with a spatula and weighed for further processing (mRNA purification or quantification of compound in tissues). The biopsies were flushed in a Barney rubble glass tubes with 350 μl of RLT buffer and placed in the Covaris for sonication (1 min per biopsy). The resulting lysate was transferred into a QIAshredder (79654, Qiagen) column for RNA extraction.
(§3) Total RNA was purified from cell pellets using the QIAshredder (79654, Qiagen) and RNeasy Mini Kit (74106, Qiagen) according to the manufacturer's instructions, with the exception that no DNA digestion was performed. Total RNA was eluted with 50 μL of RNase-free water. Total RNA was quantitated using the spectrophotometer ND-1000 Nanodrop®. The qRT-PCR (Quantitative Reverse Transcriptase Polymerase Chain Reaction) was set up in triplicate per sample using the One-Step RT qPCR Master Mix Plus (RT-QPRT-032X, Eurogentec), with either control primers and primers for the target, namely TaqMan Gene Expression assays (20× probe dye FAM™ (or VIC)-TAMRA (or MGB); Applied Biosystems) listed in Table 1.

Cdkn1 a (p21) = assay: Pharmacodynamic qRT-PCR: p21 mRNA induction in SJSA-1 tumor; type: in vivo, nude rat
Excerpt: as §1, §2, §3

Cleaved Caspase-3 = assay: Caspase-3 activation in SJSA-1 tumor (immunohistochemistry); type: in vivo, nude rat; conditions: higher single dose; 24 h post-treatment
Protocol: All tissues were processed to FFPE according to routine procedures and following fixation, rat sternum was decalcified in Citrate/EDTA buffer for 5 days, with buffer exchange every 24 h. Sections were cut at 3 μm using a microtome. p21 and cleaved Caspase-3 immunohistochemistry was performed on a Ventana Discovery XT automated immunostainer using the OmniMap anti Mouse or Rabbit HRP secondary reagent and the ChromoMap DAB chromogen system (Ventana/Roche Diagnostics GmbH, Mannheim, Germany). Antigen retrieval was done by using Cell Conditioning Discovery CC1 (Ventana/Roche Diagnostics) at mild (95° 8 min+100° 20 min, for cleaved Caspase-3) or standard (95° 8 min+100° 36 min, for p21) conditions. The primary antibody was applied manually at the desired dilution in Dako antibody diluent, followed by incubation for 1 hour at room temperature. Corresponding negative controls were incubated with AbD only. Counterstaining of sections was done using hematoxylin (Ventana/Roche Diagnostics). After the automated staining run, slides were dehydrated in a graded series of ethanol, cleared in xylene and mounted with Pertex mounting medium.

[1] = Tolerability in SJSA-1 tumor-bearing nude rat (body weight, survival); type: in vivo
Protocol: Subcutaneous tumors were induced by concentrating 1.0×10^7 SJSA-1 cells in 50% Matrigel® and injecting in the right flank of Harlan nude rats.
[formula] Similarly, the body-weight (BW) of the animal was measured three times per week allowing calculation at any particular time-point relative to the day of initiation of treatment (day 0) of the percentage change in BW (Δ % BW).

[2] = tested on: p21, Mdm2 and cleaved Caspase-3 in jejunum and bone marrow (sternum); assay: Immunohistochemistry of host tissues after i.v. treatment; type: in vivo, rat; conditions: i.v. 20 mg/kg
Protocol: Sections were cut at 3 μm using a microtome. p21 and cleaved Caspase-3 immunohistochemistry was performed on a Ventana Discovery XT automated immunostainer using the OmniMap anti Mouse or Rabbit HRP secondary reagent and the ChromoMap DAB chromogen system (Ventana/Roche Diagnostics GmbH, Mannheim, Germany). […] The primary antibody was applied manually at the desired dilution in Dako antibody diluent, followed by incubation for 1 hour at room temperature. Corresponding negative controls were incubated with AbD only. Counterstaining of sections was done using hematoxylin (Ventana/Roche Diagnostics). After the automated staining run, slides were dehydrated in a graded series of ethanol, cleared in xylene and mounted with Pertex mounting medium.

[3] = tested on: melanoma patient derived xenograft (PDX); assay: Efficacy in melanoma patient derived xenograft bearing rat (per os); type: in vivo; conditions: 27 mg/kg q3w per os
Excerpt: The same experiments were repeated with melanoma PTX bearing rat.

SJSA-1 tumor = assay: Efficacy on SJSA-1 tumor-bearing nude rat (tumor volume); type: in vivo; conditions: for tumor regression in average: one week post treatment
[4] = after first p.o. treatment, 20 and 27 mg/kg
[5] = after first single i.v. treatment 20 mg/kg
[6] = single i.v. 20 mg/kg, 24 h post treatment, tumor
[7] = single oral 27 mg/kg, 48 h post treatment, tumor
[8] = i.v. q3w 13.7 mg/kg, week 1 post treatment
[9] = i.v. q3w 13.7 mg/kg, week 2 post treatment
[10] = i.v. q3w 18.2 mg/kg, week 1 post treatment
[11] = i.v. q3w 18.2 mg/kg, week 2 post treatment
[12] = i.v. q3w 18.2 mg/kg, week 3 post treatment
[13] = i.v. q3w 18.2 mg/kg, week 5 post treatment
[14] = i.v. q3w 18.2 mg/kg, week 6 post treatment
[15] = i.v. q3w 20 mg/kg, three weeks post first treatment

For `COc1ncc(-c2nc3c(n2C(C)C)[C@H](c2ccc(Cl)cc2)N(c2cc(Cl)cn(C)c2=O)C3=O)c(OC)n1` [Compound A, (S)-5-(5-Chloro-1-methyl-2-oxo-1,2-dihydro-pyridin-3-yl)-6-(4-chloro-phenyl)-2-(2,4-dimethoxy-pyrimidin-5-yl)-1-isopropyl-5,6-dihydro-1H-pyrrolo[3,4-d]imidazol-4-one], the “Puma mRNA expression in tumor” value (BBC3 (puma); [4]) was “dose-dependently increased”, the “Puma mRNA expression increase in tumor” value (BBC3 (puma); [5]) was “more than 50 fold” and the “Puma mRNA expression induction” value (BBC3 (puma); below the high dose) was 5-6 fold. The “Puma mRNA induction Emax” value (BBC3 (puma); higher single dose, intravenously or per os) was at least 70 fold induction, the “Puma mRNA expression max” value (BBC3 (puma); [6]) was 180 fold and the “Puma mRNA induction Emax” value (BBC3 (puma); [7]) was 162 fold. For the same compound, the “p21 mRNA expression in tumor” value (Cdkn1 a (p21); [4]) was “dose-dependently increased”, the “p21 mRNA expression increase in tumor” value (Cdkn1 a (p21); [5]) was “more than 50 fold” and the “p21 mRNA expression max” value (Cdkn1 a (p21); [6]) was 200 fold. For the same compound, the “p21 mRNA induction Emax” value (Cdkn1 a (p21); [7]) was 180 fold, the “caspase-3 activation in tumor” value (Cleaved Caspase-3) was “strong caspase-3 activation” and the “ABW (%)” value [1, 8] was 2.7 ± 0.9%. The “ABW (%)” value [1, 9] was 7.5 ± 1.0%, the “ABW (%)” value [1, 10] was 2.5 ± 2.6% and the “ABW (%)” value [1, 11] was 9.1 ± 1.9%. The “ABW (%)” value [1, 12] was 11.9 ± 2.7%, the “ABW (%)” value [1, 13] was 10.6 ± 2.3% and the “ABW (%)” value [1, 14] was 5.9 ± 7.9%. For the same compound, the “sacrifice because of excessive body weight (BW) loss” value ([1]; single i.v. 20 mg/kg, day 9 post treatment) was “One rat had to be sacrificed”, the “time of maximum increase in p21, Mdm2 and cleaved Caspase-3” value ([2]; jejunum and bone marrow (sternum)) was 3 h and the “time of return of all staining to baseline” value ([2]; post treatment) was 7 days. For the same compound, the “efficacy of intermittent dosing” value [3] was “showed efficacy”, the tumor cell density (SJSA-1 tumor; higher single dose, 48 and 72 h post-treatment) was “dramatic decrease” and the tumor growth (SJSA-1 tumor; i.v. 13.7 mg/kg, after two weeks) was “re-growing”. The “tumor regression in average” value (SJSA-1 tumor; i.v. 13.7 mg/kg) was 66%, the “tumor regression in average” value (SJSA-1 tumor; i.v. 18.2 mg/kg) was 88% and the tumor regression (SJSA-1 tumor; i.v. 18.2 mg/kg, three weeks post treatment) was 36%. For the same compound, the CR (SJSA-1 tumor; [8]) was 1/6, the “ΔTvol (%)” value (SJSA-1 tumor; [8]) was −66 ± 9% and the CR (SJSA-1 tumor; [9]) was 0/6. The “ΔTvol (%)” value (SJSA-1 tumor; [9]) was 4 ± 37%, the CR (SJSA-1 tumor; [10]) was 0/5 and the “ΔTvol (%)” value (SJSA-1 tumor; [10]) was −80 ± 2%. For the same compound, the CR (SJSA-1 tumor; [11]) was 2/5, the “ΔTvol (%)” value (SJSA-1 tumor; [11]) was −79 ± 11% and the CR (SJSA-1 tumor; [12]) was 2 and 2/5. For the same compound, the “ΔTvol (%)” value (SJSA-1 tumor; [12]) was −36 ± 37%, the CR (SJSA-1 tumor; [13]) was 2/5 and the “ΔTvol (%)” value (SJSA-1 tumor; [13]) was 22 ± 63%. The CR (SJSA-1 tumor; [14]) was 2/5, the “ΔTvol (%)” value (SJSA-1 tumor; i.v. q3w 18.2 mg/kg, week 6 post treatment (after the second treatment)) was 118% and 118 ± 104% and the “rats with complete response (100% regression)” value (SJSA-1 tumor; [15]) was 3. For the same compound, the “rats with progressive disease” value (SJSA-1 tumor; [15]) was 1, the “rats with stable disease” value (SJSA-1 tumor; [15]) was 1 and the “effect of combining two dosing schedules” value (SJSA-1 tumor; intermittent (15 mg/kg once) plus daily dosing (1.5 mg/kg)) was “highly synergistic effect”. The tumor regression (SJSA-1 tumor; p.o. q3w 20 mg/kg, three weeks post first treatment) was 27%, the SJSA-1 tumor regression (SJSA-1 tumor; p.o. q3w 27 mg/kg, after one cycle (three weeks post first treatment)) was 88% and the “response of regrown tumors to retreatment” value (SJSA-1 tumor; retreated i.v. at 15 mg/kg) was “still sensitive”. The “tumors with incomplete response and regrowth” value (SJSA-1 tumor; single i.v. 20 mg/kg) was 2 of 11, the tumor regression (SJSA-1 tumor; single i.v. 20 mg/kg, 14 days post treatment) was 92% and the “complete SJSA-1 tumor response (100% regression), share of treated rat” value (SJSA-1 tumor; single i.v. 20 mg/kg, for 42 days) was 82%.
